Measured values: paper PMC4703104 (Journal of medicinal chemistry, 2015)
Each block holds one molecule with its values, some of them ahead of it.

Assays:
rat = rat models ref 5; cited from earlier work
mouse = mouse models ref 5; cited from earlier work
human δ receptor (hDOPr) [1] = target: T1, human δ receptor (hDOPr) (Homo sapiens, UniProt P41143); experiment: [3H]diprenorphine radioligand; type: binding
human δ receptor (hDOPr) [2] = target: T1, human δ receptor (hDOPr); experiment: cell-based
Nephelometry = type: physicochemical
δ receptor = δ receptor (Homo sapiens, UniProt P41143); experiment: PathHunter β-arrestin recruitment assay in CHO-OPRD1 cells; type: cell-based
[3] = HBSS + 25 mM HEPES and 10% FBS (β-arrestin assay buffer)
[4] = phosphate buffered saline solution, data not shown

T1 sequence (P41143 whole entry): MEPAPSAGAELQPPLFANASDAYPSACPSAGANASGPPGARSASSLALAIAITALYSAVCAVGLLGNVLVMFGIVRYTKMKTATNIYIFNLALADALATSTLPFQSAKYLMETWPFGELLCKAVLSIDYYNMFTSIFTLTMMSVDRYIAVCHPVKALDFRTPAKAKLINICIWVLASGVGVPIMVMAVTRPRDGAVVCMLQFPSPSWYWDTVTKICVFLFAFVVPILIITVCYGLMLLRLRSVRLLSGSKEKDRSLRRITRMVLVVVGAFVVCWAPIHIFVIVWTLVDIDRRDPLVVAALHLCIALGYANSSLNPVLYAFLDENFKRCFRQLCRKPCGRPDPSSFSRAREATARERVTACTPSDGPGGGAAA
δ receptor, sequence (P41143 whole entry): as above

SMILES: CCN(CC)C(=O)c1ccc(C2=CC3(CCNCC3)Oc3cccc(O)c32)cc1 [ADL5859, N,N-diethyl-4-(5-hydroxyspiro-[chromene-2,4′-piperidine]-4-yl)benzamide]
seizures (rat): no seizures
seizures (mouse): no seizures

SMILES: CN1CC[C@]2(c3cccc(O)c3)Cc3nc4ccccc4cc3C[C@H]2C1 [TAN67]
Ki (human δ receptor (hDOPr) [1]): 10 nM
affinity ratio (vehicle Ki)/(2 Ki) (human δ receptor (hDOPr) [1]; effect of 2 (10 μM) on the orthosteric agonist's Ki): 3
Kd (human δ receptor (hDOPr) [2]): 3.98 nM

concentrations showing particulate matter (Nephelometry; [3]): above 3 μM
concentrations showing particulate matter (Nephelometry; [4]): above 1 μM
SMILES: Cc1ccccc1COc1ccc(C2C3=C(CC(C)(C)CC3=O)OC3=C2C(=O)CC(C)(C)C3)cc1 [compound 2, 3,3,6,6-tetramethyl-9-(4-((2-methylbenzyl)oxy)phenyl)-3,4,5,6,7,9-hexahydro-1H-xanthene-1,8(2H)-dione]

PAM activity at the δ receptor (δ receptor; PAM mode, EC20 of leu-enkephalin): robust potentiation
SMILES: CC1(C)CC(=O)C2=C(C1)OC1=C(C(=O)CC(C)(C)C1)C2c1ccc(OCc2ccc(F)cc2)cc1 [compound 7]

selectivity μ/δ (δ receptor; potency ratio of PAM mode EC50 values, β-arrestin recruitment): >33
SMILES: CC1(C)CC(=O)C2=C(C1)OC1=C(C(=O)CC(C)(C)C1)C2c1ccc(OCc2ccccc2Cl)cc1 [compound 8]

concentrations showing particulate matter (Nephelometry; [3]): above 3 μM
concentrations showing particulate matter (Nephelometry; [4]): above 1 μM
SMILES: CC1(C)CC(=O)C2=C(C1)OC1=C(C(=O)CC(C)(C)C1)C2c1ccc(OCc2ccccc2Br)cc1 [compound 10, 9-(4-((2-Bromobenzyl)oxy)phenyl)-3,3,6,6-tetramethyl-3,4,5,6,7,9-hexahydro-1H-xanthene-1,8(2H)-dione]
